Data: publication PMC11571207, “Stereorandomized Oncocins with Preserved Ribosome Binding and Antibacterial Activity” (Journal of Medicinal Chemistry, 2024)
Converted amounts (≈) assume the structure as drawn. Read-outs that look alike come from different tables or passages of the source. Non-standard residues stand in square brackets, D forms with d. Residues, ends and D or L forms follow the SMILES beside them.

Assays:
K. pneumoniae NCTC 418 = experiment: microbe, parasite or virus in culture; details: for MIC K. pneumoniae NCTC418: supplement CSV
Summary of the method: (§1)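 Read-out was visible growth after MTT addition, the MIC being the lowest inhibitory peptide concentration. Bacteria grown to log phase in LB were exposed in MH medium to peptide from 64 μg/mL in twofold dilutions for 15-18h at 37°C.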

A. baumannii ATCC19606 = experiment: microbe, parasite or virus in culture; details: for MIC A. baumannii ATCC19606: supplement CSV
Summary of the method: as §1

S. aureus COL (MRSA) = experiment: microbe, parasite or virus in culture; details: for MIC S. aureus COL (MRSA): supplement CSV
Summary of the method: as §1

P. aeruginosa PAO1 = experiment: microbe, parasite or virus in culture; details: for MIC P. aeruginosa PAO1: supplement CSV
Summary of the method: as §1

E. coli W3110 = experiment: microbe, parasite or virus in culture; details: for MIC E. coli W3110: supplement CSV
Summary of the method: as §1

[1] = tested on: P. aeruginosa PA14 4.18 (pmrB); details: for MIC P. aeruginosa PA14 4.18: supplement CSV
human red blood cells = experiment: Hemolysis assay, minimum hemolytic concentration
P. aeruginosa PA14 = experiment: microbe, parasite or virus in culture; details: for MIC P. aeruginosa PA14: supplement CSV
Experimental: (§2) Minimum inhibitory concentration assay
(§3) Antimicrobial activity was assayed against P. aeruginosa PAO1, K. pneumoniae NCTC418, E. coli W3110, A. baumannii ATCC 19606, methicillin-resistant S. aureus COL (MRSA), and for selected peptides on P. aeruginosa PA14 and the polymyxin-B-resistant derivative PA14 2P4, as well as the clinical isolates ZEM-1A and ZEM9A, K. pneumoniae OXA-48, S. aureus Newman, Enterobacter cloacae and Burkholderia cenocepacia. The minimal inhibitory concentration (MIC) was determined by using broth microdilution method. A colo ny of bacteria was picked and grown in Luria-Bertani (LB) medium overnight at 37°C. For E. coli BW25113 sbmA::kan the medium was supplemented with 25 mg/L of kanamycin. The next day, the culture was then regrown in LB medium to log phase (OD600 = 0.6 to 0.8), which lasted approximately 4 h, and diluted to an OD600 of 0.022 in the desired medium. Stock solutions of 1 mg/mL of the samples were prepared in sterilized milliQ water and diluted to the beginning concentration of 64 μg/mL in 300 μL Mueller Hinton (MH)-medium. The diluted samples were added to first well of 96-well microtiter plate (TPP, untreated, Faust Laborbedarf, AG, Schaffhausen) and diluted serially by ½. Finally, 4 μL of the bacterial suspension was inoculated into the sample solutions (150 μL/well) with a final inoculation of about 5∙10^5 CFU/mL. The plates were then incubated at 37°C for 15-18h. For each assay, sterility (broth only) and growth control (broth with bacterial inoculum, without antibiotics) were checked with two columns in the plate. The next day, 15 μL of 3-(4,5-dimethylthiazol-2-yl)-2,5-diphenyltetrazolium bromide (MTT) was added to each well of the plate, such a way that MIC was defined as the lowest concentration of the peptide that inhibited visible growth of the tested

P. aeruginosa ZEM9A = experiment: microbe, parasite or virus in culture; details: for MIC P. aeruginosa ZEM9A: supplement CSV
Experimental: as §2, §3

[2] = tested on: P. aeruginosa PA14 2P4 (pmrB); experiment: microbe, parasite or virus in culture; details: for MIC P. aeruginosa PA14 2P4: supplement CSV
Experimental: as §2, §3

E. cloacae = experiment: microbe, parasite or virus in culture; details: for MIC E. cloacae: supplement CSV
Experimental: as §2, §3

P. aeruginosa ZEM-1A = experiment: microbe, parasite or virus in culture; details: for MIC P. aeruginosa ZEM-1A: supplement CSV
Experimental: as §2, §3

K. pneumoniae OXA-48 = experiment: microbe, parasite or virus in culture; details: for MIC K. pneumoniae OXA-48: supplement CSV
Experimental: as §2, §3

[3] = polymyxin B resistant strain, 12.5% MHB pH 7.4, 16–20 h at 37 °C
[4] = polymyxin B resistant strain, full MHB pH 7.4, 16–20 h at 37 °C

SMILES: CC[C@@H](C)[C@@H](NC(=O)[C@@H](CCCNC(=N)N)NC(=O)[C@@H](CCCNC(=N)N)NC(=O)[C@H]1CCCN1C(=O)[C@H]1CCCN1C(=O)[C@@H](CCCNC(=N)N)NC(=O)[C@H]1CCCN1C(=O)[C@@H](CCCNC(=N)N)NC(=O)[C@H]1CCCN1C(=O)[C@@H](CC(C)C)NC(=O)[C@@H](Cc1ccc(O)cc1)NC(=O)[C@H]1CCCN1C(=O)[C@H]1CCCN1C(=O)[C@@H](CCCCN)NC(=O)[C@@H](CC(=O)O)NC(=O)[C@H](N)C(C)C)C(=O)N[C@H](Cc1ccc(O)cc1)C(=O)N[C@H](CC(N)=O)C(=O)N[C@H](CCCNC(=N)N)C(N)=O [D-Onc] (H-[dV][dD][dK][dP][dP][dY][dL][dP][dR][dP][dR][dP][dP][dR][dR][dI][dY][dN][dR]-NH2)
- MIC K. pneumoniae, 12.5% MHB (K. pneumoniae NCTC 418; K. pneumoniae NCTC 418, 12.5% Müller–Hinton medium, 16–20 h at 37 °C): > 16 µg/mL
- MIC K. pneumoniae, Full MHB (K. pneumoniae NCTC 418; K. pneumoniae NCTC 418, full Müller–Hinton medium, 16–20 h at 37 °C): > 64 µg/mL
- MIC K. pneumoniae NCTC418 (K. pneumoniae NCTC 418; 12.5% MH pH 7.4): >16 µg/mL
- MIC K. pneumoniae NCTC418 (K. pneumoniae NCTC 418; full MH pH 7.4): >64 µg/mL
- MIC A. baumannii, 12.5% MHB (A. baumannii ATCC19606; A. baumannii ATCC19606, 12.5% Müller–Hinton medium, 16–20 h at 37 °C): 16 µg/mL (≈ 6.69 µM)
- MIC A. baumannii, Full MHB (A. baumannii ATCC19606; A. baumannii ATCC19606, full Müller–Hinton medium, 16–20 h at 37 °C): > 64 µg/mL
- MIC A. baumannii ATCC19606 (A. baumannii ATCC19606; 12.5% MH pH 7.4): 16 µg/mL (≈ 6.69 µM)
- MIC A. baumannii ATCC19606 (A. baumannii ATCC19606; full MH pH 7.4): >64 µg/mL
- MIC S. aureus, 12.5% MHB (S. aureus COL (MRSA); S. aureus COL (MRSA), 12.5% Müller–Hinton medium, 16–20 h at 37 °C): >64 / 64 μg/mL
- MIC S. aureus, Full MHB (S. aureus COL (MRSA); S. aureus COL (MRSA), full Müller–Hinton medium, 16–20 h at 37 °C): >64 / 64 μg/mL
- MIC S. aureus COL (MRSA) (S. aureus COL (MRSA); 12.5% MH pH 7.4): 64 µg/mL (≈ 26.8 µM)
- MIC S. aureus COL (MRSA) (S. aureus COL (MRSA); full MH pH 7.4): >64 µg/mL
- MIC P. aeruginosa, 12.5% MHB (P. aeruginosa PAO1; P. aeruginosa PAO1, 12.5% Müller–Hinton medium, 16–20 h at 37 °C): 8 µg/mL (≈ 3.35 µM)
- MIC P. aeruginosa, Full MHB (P. aeruginosa PAO1; P. aeruginosa PAO1, full Müller–Hinton medium, 16–20 h at 37 °C): > 64 µg/mL
- MIC P. aeruginosa PAO1 (P. aeruginosa PAO1; 12.5% MH pH 7.4): 8 µg/mL (≈ 3.35 µM)
- MIC P. aeruginosa PAO1 (P. aeruginosa PAO1; full MH pH 7.4): >64 µg/mL
- MIC E. coli, 12.5% MHB (E. coli W3110; E. coli W3110, 12.5% Müller–Hinton medium, 16–20 h at 37 °C, broth microdilution): 8 µg/mL (≈ 3.35 µM)
- MIC E. coli, Full MHB (E. coli W3110; E. coli W3110, full Müller–Hinton medium, 16–20 h at 37 °C, broth microdilution): 32 µg/mL (≈ 13.4 µM)
- MIC E. coli W3110 (E. coli W3110; 12.5% MH pH 7.4): 8 µg/mL (≈ 3.35 µM)
- MIC E. coli W3110 (E. coli W3110; full MH pH 7.4): 32 µg/mL (≈ 13.4 µM)
- MIC P. aeruginosa PA14 4.18 (pmrB), 12.5% MHB [1, 3]: 16 µg/mL (≈ 6.69 µM)
- MIC P. aeruginosa PA14 4.18 (pmrB), full MHB [1, 4]: > 64 µg/mL
- MIC P. aeruginosa PA14 4.18 ([1]; 12.5% MH pH 7.4): 16 µg/mL (≈ 6.69 µM)
- MIC P. aeruginosa PA14 4.18 ([1]; full MH pH 7.4): >64 µg/mL
- Haemolysis on hRBC, MHC (human red blood cells; 2.5% human red blood cells (final) in 10 mM phosphate, 150 mM NaCl, pH 7.4, 25 °C, 4 h, visual inspection): >1000 µg/mL
- MHC human red blood cells (human red blood cells; supplement CSV): >1000 µg/mL
- MIC P. aeruginosa PA14, 12.5% MHB (P. aeruginosa PA14; 12.5% MHB pH 7.4, 16–20 h at 37 °C, two different duplicate MIC determinations): 32 µg/mL (≈ 13.4 µM)
- MIC P. aeruginosa PA14, full MHB (P. aeruginosa PA14; full MHB pH 7.4, 16–20 h at 37 °C, two different duplicate MIC determinations): > 64 µg/mL
- MIC P. aeruginosa PA14 (P. aeruginosa PA14; 12.5% MH pH 7.4): 32 µg/mL (≈ 13.4 µM)
- MIC P. aeruginosa PA14 (P. aeruginosa PA14; full MH pH 7.4): >64 µg/mL
- MIC P. aeruginosa ZEM9A, 12.5% MHB (P. aeruginosa ZEM9A; clinical isolate, 12.5% MHB pH 7.4, 16–20 h at 37 °C): 32 µg/mL (≈ 13.4 µM)
- MIC P. aeruginosa ZEM9A, full MHB (P. aeruginosa ZEM9A; clinical isolate, full MHB pH 7.4, 16–20 h at 37 °C): > 64 µg/mL
- MIC P. aeruginosa ZEM9A (P. aeruginosa ZEM9A; 12.5% MH pH 7.4): 32 µg/mL (≈ 13.4 µM)
- MIC P. aeruginosa ZEM9A (P. aeruginosa ZEM9A; full MH pH 7.4): >64 µg/mL
- MIC P. aeruginosa PA14 2P4 (pmrB), 12.5% MHB [2, 3]: 8 µg/mL (≈ 3.35 µM)
- MIC P. aeruginosa PA14 2P4 (pmrB), full MHB [2, 4]: > 64 µg/mL
- MIC P. aeruginosa PA14 2P4 ([2]; 12.5% MH pH 7.4): 8 µg/mL (≈ 3.35 µM)
- MIC P. aeruginosa PA14 2P4 ([2]; full MH pH 7.4): >64 µg/mL
- MIC E. cloacae, 12.5% MHB (E. cloacae; 12.5% MHB pH 7.4, 16–20 h at 37 °C): 16 µg/mL (≈ 6.69 µM)
- MIC E. cloacae, full MHB (E. cloacae; full MHB pH 7.4, 16–20 h at 37 °C): > 64 µg/mL
- MIC E. cloacae (E. cloacae; 12.5% MH pH 7.4): 16 µg/mL (≈ 6.69 µM)
- MIC E. cloacae (E. cloacae; full MH pH 7.4): >64 µg/mL
- MIC P. aeruginosa ZEM-1A, 12.5% MHB (P. aeruginosa ZEM-1A; clinical isolate, 12.5% MHB pH 7.4, 16–20 h at 37 °C, cells marked c: single measurement (in duplicates)): >64/>64 ^c μg/mL
- MIC P. aeruginosa ZEM-1A, full MHB (P. aeruginosa ZEM-1A; clinical isolate, full MHB pH 7.4, 16–20 h at 37 °C, cells marked c: single measurement (in duplicates)): >64/>64 ^c μg/mL
- MIC P. aeruginosa ZEM-1A (P. aeruginosa ZEM-1A; 12.5% MH pH 7.4): >64 µg/mL
- MIC P. aeruginosa ZEM-1A (P. aeruginosa ZEM-1A; full MH pH 7.4): >64 µg/mL
- MIC K. pneumoniae OXA-48, 12.5% MHB (K. pneumoniae OXA-48; carbapenem-resistant, 12.5% MHB pH 7.4, 16–20 h at 37 °C): >64/64 μg/mL
- MIC K. pneumoniae OXA-48, full MHB (K. pneumoniae OXA-48; carbapenem-resistant, full MHB pH 7.4, 16–20 h at 37 °C): >64/64 μg/mL
- MIC K. pneumoniae OXA-48 (K. pneumoniae OXA-48; 12.5% MH pH 7.4): 64 µg/mL (≈ 26.8 µM)
- MIC K. pneumoniae OXA-48 (K. pneumoniae OXA-48; full MH pH 7.4): >64 µg/mL
